Data reported in patent US11351178B2, “Selective HDAC6 inhibitors” (ITALFARMACO S.P.A., priority 2017, dated 2022).

Columns and labels:
recombinant human HDAC6 = biological target: T1, recombinant human HDAC6 (Homo sapiens, UniProt Q9UBN7); assay: Enzymatic screening on recombinant human HDAC6; assay type: biochemical; conditions: Table 2; read-out: HDAC6 IC50
T1 sequence (Q9UBN7 1-1215): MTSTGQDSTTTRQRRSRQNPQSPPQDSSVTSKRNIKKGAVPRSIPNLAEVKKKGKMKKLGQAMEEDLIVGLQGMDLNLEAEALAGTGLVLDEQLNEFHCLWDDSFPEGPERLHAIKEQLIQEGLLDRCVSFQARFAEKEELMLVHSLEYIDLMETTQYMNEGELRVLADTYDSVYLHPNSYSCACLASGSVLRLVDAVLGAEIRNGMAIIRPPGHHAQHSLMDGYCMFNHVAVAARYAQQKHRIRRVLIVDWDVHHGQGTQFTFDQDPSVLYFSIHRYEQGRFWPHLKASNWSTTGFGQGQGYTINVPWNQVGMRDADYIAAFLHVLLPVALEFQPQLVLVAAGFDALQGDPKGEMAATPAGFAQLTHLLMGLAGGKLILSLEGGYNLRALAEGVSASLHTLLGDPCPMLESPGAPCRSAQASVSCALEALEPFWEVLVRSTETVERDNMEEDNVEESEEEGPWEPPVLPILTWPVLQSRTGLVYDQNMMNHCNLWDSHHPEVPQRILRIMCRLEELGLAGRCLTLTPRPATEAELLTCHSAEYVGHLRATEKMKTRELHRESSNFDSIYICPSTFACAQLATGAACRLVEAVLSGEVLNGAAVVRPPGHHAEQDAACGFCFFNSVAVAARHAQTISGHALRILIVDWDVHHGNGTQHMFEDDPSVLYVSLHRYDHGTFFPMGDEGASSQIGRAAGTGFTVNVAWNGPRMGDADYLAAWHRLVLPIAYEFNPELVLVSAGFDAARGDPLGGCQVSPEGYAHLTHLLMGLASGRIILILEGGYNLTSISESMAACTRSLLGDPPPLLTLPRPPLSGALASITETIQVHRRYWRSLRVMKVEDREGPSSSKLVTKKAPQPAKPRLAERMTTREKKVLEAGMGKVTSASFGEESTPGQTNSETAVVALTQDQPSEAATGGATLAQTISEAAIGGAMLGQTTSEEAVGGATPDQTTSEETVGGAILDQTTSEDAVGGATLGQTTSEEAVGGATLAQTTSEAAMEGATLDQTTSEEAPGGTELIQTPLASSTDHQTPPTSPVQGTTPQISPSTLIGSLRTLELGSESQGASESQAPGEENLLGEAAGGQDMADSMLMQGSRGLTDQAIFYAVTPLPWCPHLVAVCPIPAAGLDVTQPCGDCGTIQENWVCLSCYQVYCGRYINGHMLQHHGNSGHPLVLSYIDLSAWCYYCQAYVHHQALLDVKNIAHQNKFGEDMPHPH
Method in brief: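 Buffer for substrate addition: 25 mM Tris-HCl pH 8, 130 mM NaCl, 0.05% Tween-20, 10% glycerol, substrate 2× concentrated (FdL, FdL-Green or trifluoroacetyl-lysine). Recombinant human HDAC was preincubated with compound at 30 °C beforehand, timing isoform-dependent, and the reaction was likewise run at 30 °C.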

[1] = test system: B 697 promyelocytic cell line; assay: Cytotoxicity on 697 cell line (CellTiter 96); assay type: cell-based; conditions: 72 hours incubation, read-out: 697 TOXICITY
Method: (§1) Cytotoxic activity was evaluated on B 697 […] cell line for all synthesized compounds and on peripheral blood mononuclear cells (PBMCs) for compounds showing a good potency/selectivity profile.
(§2) Cells were seeded in plate (2×10^4 cells per well for 697, 5×10^5 cells per well for PBMCs). The test compounds (concentrations from 1.5 nM to 10000 nM for PBMCs and from 1 nM to 10000 nM for 697) were added after 24 hours and incubated 72 hours. The molecules cytotoxic activity was evaluated using CellTiter 96© Aqueous One Solution Cell Proliferation Assay (Promega), which measures the mitochondria function, following the manufacturer's instructions.

[2] = test system: peripheral blood mononuclear cells (PBMCs); assay: Cytotoxicity on PBMCs (CellTiter 96); assay type: cell-based; conditions: PBMC, 72 h; read-out: PBMC TOXICITY (72 h)
Method: as §1, §2

[3] = Stability to Phase I metabolism in rat S9 liver fraction; assay type: in vitro ADME; conditions: after 90 min, 37° C.
Method in brief: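 Compounds were incubated with rat or human liver S9 fraction at 37 °C for up to 90 min. Reactions were quenched on ice with acidified acetonitrile and analysed by HPLC-UV or LC-MS/MS. Percent remaining versus time zero and intrinsic clearance were calculated.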

Stability in rat plasma = assay type: in vitro ADME; conditions: after 4 hours, 37° C.
Method in brief: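 Compounds incubated at 37° C in rat or human plasma at 50 μM (UV/HPLC) or 1 or 2 μM (LC-MS/MS) for 0–4 h. Reaction stopped with acidified acetonitrile on ice; percent remaining versus initial amount and plasma half-life calculated.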

| SMILES | IC50 (recombinant human HDAC6) [nM] | IC50 [1] [nM] | IC50 [2] [nM] | residual percentage in rat S9 fraction [3] [%] | residual percentage in rat plasma (Stability in rat plasma) [%] |
| --- | --- | --- | --- | --- | --- |
| NCc1ccc(-c2nnn(Cc3c(F)cc(C(=O)NO)cc3F)n2)cc1 [comp. 175, 4-[[5-[4-(aminomethyl)phenyl]tetrazol-2-yl]methyl]-3,5-difluoro-benzenecarbohydroxamic acid] | 4 | 10100 | 1260 |  |  |
| O=C(NO)c1cc(F)c(Sc2nnc(CN3CCCC3)n2Cc2ccccc2)c(F)c1 [comp. 141, 4-[[4-benzyl-5-(pyrrolidin-1-yl-methyl)-1,2,4-triazol-3-yl]sulfanyl]-3,5-difluoro-benzenecarbohydroxamic acid] | 25 | > 10000 |  | 36 | 73 |
| Cn1c(Sc2c(F)cc(C(=O)NO)cc2F)nnc1C(C)(C)c1ccccc1 [comp. 4, 3,5-difluoro-N-hydroxy-4-((4-methyl-5-(2-phenylpropan-2-yl)-4H-1,2,4-triazol-3-yl)thio)benzamide] | 20 | > 10000 |  | 34 | 106 |
| O=C(NO)c1cc(F)c(Cn2nnnc2-c2nccc3ccccc23)c(F)c1 [comp. 94, 3,5-difluoro-4-[[5-(1-isoquinolyl)tetrazol-1-yl]methyl]benzenecarbohydroxamic acid] | 7 | 908 |  | 22 | 75 |
| O=C(NO)c1cc(F)c(Cn2nnc(Cc3ccccn3)n2)c(F)c1.O=C(O)C(F)(F)F [comp. 134, 3,5-difluoro-4-[[5-(2-pyridylmethyl)tetrazol-2-yl]methyl]benzenecarbohydroxamic acid;2,2,2-trifluoroacetic acid] | 10 | > 10000 |  | 95 | 76 |
| Cn1c(Sc2c(F)cc(C(=O)NO)cc2F)nnc1-c1cnc2ccccn12 [comp. 149, 3,5-difluoro-4-[(5-imidazo[1,2-a]pyridin-3-yl-4-methyl-1,2,4-triazol-3-yl)sulfanyl]benzenecarbohydroxamic acid] | 11 | 794 |  | 84 |  |
| CN1CCN(c2cccc(-c3nnc(Sc4c(F)cc(C(=O)NO)cc4F)n3C)c2)CC1 [comp. 166, 3,5-difluoro-4-[[4-methyl-5-[3-(4-methylpiperazin-1-yl)phenyl]-1,2,4-triazol-3-yl]sulfanyl]benzenecarbohydroxamic acid] | 9 | 61400 | > 10000 |  |  |
| Nc1ccc(-c2nnnn2Cc2c(F)cc(C(=O)NO)cc2F)cc1 [comp. 172, 4-[[5-(4-aminophenyl)tetrazol-1-yl]methyl]-3,5-difluoro-benzenecarbohydroxamic acid] | 8 | 61400 | > 10000 |  |  |
| O=C(NO)c1cc(F)c(Sc2nnc(-c3cccnc3)n2Cc2ccco2)c(F)c1 [comp. 147, 3,5-difluoro-4-[[4-(2-furylmethyl)-5-(3-pyridyl)-1,2,4-triazol-3-yl]sulfanyl]benzenecarbohydroxamic acid] | 16 | > 10000 |  | 76 | 89 |
| O=C(NO)c1cc(F)c(Cn2nnnc2-c2ccc(C(F)(F)F)cn2)c(F)c1 [comp. 129, 3,5-difluoro-4-[[5-[5-(trifluoromethyl)-2-pyridyl]tetrazol-1-yl]methyl]benzenecarbohydroxamic acid] | 13 | 13200 |  | 45 | 93 |
| Cn1c(Sc2c(F)cc(C(=O)NO)cc2F)nnc1-c1nccc2ccccc12 [comp. 121, 3,5-difluoro-4-[[5-(1-isoquinolyl)-4-methyl-1,2,4-triazol-3-yl]sulfanyl]benzenecarbohydroxamic acid] | 12 | 5910 |  | 25 | 100 |
| O=C(NO)c1cc(F)c(Sc2nnc(-c3ccncc3)n2Cc2ccco2)c(F)c1 [comp. 146, 3,5-difluoro-4-[[4-(2-furylmethyl)-5-(4-pyridyl)-1,2,4-triazol-3-yl]sulfanyl]benzenecarbohydroxamic acid] | 20 | > 10000 |  | 59 |  |
| O=C(NO)c1cc(F)c(Cn2nnnc2-c2scc3c2OCCO3)c(F)c1 [comp. 5, 4-((5-(2,3-dihydrothieno[3,4-b][1,4]dioxin-5-yl)-1H-tetrazol-1-yl)methyl)-3,5-difluoro-N-hydroxybenzamide] | 17 | 88700 |  | 36 | 97 |
| Cn1c(Sc2c(F)cc(C(=O)NO)cc2F)nnc1-c1cccc(S(=O)(=O)N2CCN(Cc3ccccc3)CC2)c1 [comp. 152, 4-[[5-[3-(4-benzylpiperazin-1-yl)sulfonylphenyl]-4-methyl-1,2,4-triazol-3-yl]sulfanyl]-3,5-difluoro-benzenecarbohydroxamic acid] | 22 | 1450 |  | 31 | 113 |
| O=C(NO)c1ccc(Cn2nnc(-c3ccco3)n2)cc1 [comp. 12, 4-((5-(furan-2-yl)-2H-tetrazol-2-yl)methyl)-N-hydroxybenzamide] | 4 | > 10000 |  | 44 | 87 |
| Cn1c(Sc2c(F)cc(C(=O)NO)cc2F)nnc1-c1ccc2ccccc2n1 [comp. 122, 3,5-difluoro-4-[[4-methyl-5-(2-quinolyl)-1,2,4-triazol-3-yl]sulfanyl]benzenecarbohydroxamic acid] | 12 | 1030 |  | 47 | 94 |
| Cn1c(Sc2c(F)cc(C(=O)NO)cc2F)nnc1C1(c2ccccc2)CCN(Cc2ccccc2)CC1 [comp. 150, 4-[[5-(1-benzyl-4-phenyl-4-piperidyl)-4-methyl-1,2,4-triazol-3-yl]sulfanyl]-3,5-difluoro-benzenecarbohydroxamic acid] | 24 | 1260 |  | 35 | 92 |
| CN1CCN(S(=O)(=O)c2cccc(-c3nnc(Sc4c(F)cc(C(=O)NO)cc4F)n3C)c2)CC1 [comp. 151, 3,5-difluoro-4-[[4-methyl-5-[3-(4-methylpiperazin-1-yl)sulfonylphenyl]-1,2,4-triazol-3-yl]sulfanyl]benzenecarbohydroxamic acid] | 9 | 287 |  | 62 | 87 |
| O=C(NO)c1ccc(Cn2nnc(-c3ncccn3)n2)cc1 [comp. 123, 4-[(5-pyrimidin-2-yltetrazol-2-yl)methyl]benzenecarbohydroxamic acid] | 8 | 1970 |  | 99 | 99 |
